Experiments:
[1] = tested on: H460 cells; test: CellTiter-Glo Luminescent Cell Viability Assay; format: cell-based, human; conditions: sCLU 0.25 μg/ml or TGFβ 2 nM for 48 h, then erlotinib 20 μM for 96 h
Procedure: (§1) Following this induction, the cells were treated with erlotinib (20 μM) for 96 h and the number of cells was determined using the CellTiter-Glo® Luminescent Cell Viability Assay (Promega, Madison, Wis.). As a control, additional cells were not induced with sCLU or TGFβ. […] We also compared the response to erlotinib in cells that were induced to undergo an EMT with either sCLU or TGFβ.

[2] = tested on: H1299 cells; test: CellTiter-Glo Luminescent Cell Viability Assay; format: cell-based, human
Procedure: as §1

[3] = tested on: cancer cells; conditions: incubated with cancer cells; WO2007/030930, WO2011/063523; cited from earlier work

C#Cc1cccc(Nc2ncnc3cc(OCCOC)c(OCCOC)cc23)c1 [erlotinib]
responsiveness to erlotinib after stimulation of EMT [1]: did not change the responsiveness | responsiveness to erlotinib after stimulation of EMT ([2]; H1299 cells, sCLU 0.25 μg/ml or TGFβ 2 nM for 48 h, then erlotinib 20 μM for 96 h): did not change the responsiveness | sensitivity of the cells to erlotinib ([2]; H1299 compared with H460 cells, erlotinib 20 μM for 96 h): H1299 cells were more sensitive to erlotinib than the H460 cells

B1: 16B5: murine anti-clusterin (sCLU) antibody that blocks EMT; VL SEQ ID NO.:25, VH SEQ ID NO.:29 (antibody, V domains shown)
VH: EVQLQQSGAELVKPGASVRLSCTTSGFNIKDIYMHWVKQRPEQGLEWIGRIDPAYGNTKYDPKFQGKATITADTSSNTAYLQLSSLTSEDTAVYYCARRYDTAMDYWGQGTSVTVSS
VL: DIVMSQSPSSLAVSAGEKVTMSCKSSQSLLNSRTRKNYLAWYQQKPGQSPKLLIYWASTRESGVPDRFTGSGSGTDFTLTISSVQAEDLAVYYCKQSYNLWTFGGGTKLEFK
modifications: murine 16B5 heavy chain variable region; murine 16B5 light chain variable region
blocking of EMT (maintenance of membrane E-cadherin expression) [3]: could block EMT

— patent US9822170B2, “Co-use of a clusterin inhibitor with an EGFR inhibitor to treat cancer” (ALETHIA BIOTHERAPEUTICS INC., priority 2012, dated 2017)
